Reference: paper PMC7665024, “Anti-apoptotic BCL-2 regulation by changes in dynamics of its long unstructured loop” (Communications Biology, 2020)

Columns and labels:
BAX [1] = test: FRAP-GUV pore-forming activity of BAX, 10-kDa F-dextran; type: biochemical, mouse; parameters: unit not given here
Procedure: (§1) Briefly, GUVs were incubated with the proteins of interest over a period of time (Fig. 2c), followed by photobleaching within individual GUVs. A series of fluorescent images were collected over time after the photobleaching and then analyzed to yield the diffusion coefficients of Fluor molecules (including FITC-labeled 70-kDa, and Alexa-647-labeled 10-kDa probes) using the theoretical approach detailed in the “Methods” section. As Fluor molecules are homogeneously dispersed in the solution (outside and inside of GUVs) before the incubation with BAX and activators, it is reasonable to expect that the larger the induced pore area on the surface of a GUV, the greater the diffusion coefficient. Thus, the diffusion coefficient is directly related to the pore-forming activity of activated BAX. As the pore-forming activity is proportional to the concentration of BAX[18], we fixed the total amount of added BAX in all of the measurements below (see the “Methods” section).
(§2) Full-length BAX and variants were prepared as previously described[18],[22],[35]. Mouse BAX was cloned into pTYB1 vector (New England Biolabs, Inc.), resulting pTYB1-BAX construct. The pTYB1-BAX construct encoding a fusion protein of BAX with chitin-binding peptide was separated by a self-cleavable intein tag to obtain a full-length BAX. Wild-type BAX has two native cysteine residues at 62 and 126. Cysteine-free construct (C62S/C126S) was used to prepare single-cysteine BAX variants for conjugating fluorescence probes (e.g., BAX136C in Fig. 1d). Point mutations of recombinant BAX were generated using a QuikChange mutagenesis kit. Proteins were expressed in E. coli (ER2566) strain (New England Biolabs, Inc.) and purified without detergent. Bacterial cultures were grown at 37 °C in LB medium containing 0.1 g/L ampicillin to reach an OD600 of 1.0. BAX expression was induced by addition of 0.3 mM IPTG at 30 °C for 6−8 h. The cells were harvested by centrifugation and resuspended in ice-cold lysis buffer (20 mM Tris–HCl, pH 7.0, 500 mM NaCl and 1 mM PMSF). The resuspended pellet was sonicated on ice for 30 min, followed by centrifugation at 12,800 × g for 50 min. […] The resins were incubated in a pre-equilibrated buffer (20 mM sodium phosphate, pH 8.0, 100 mM NaCl, 60 mM dithiothreitol (DTT)) for 48 h. Proteins were eluted from column and further purified by a SEC using a HiLoad 16/60 Superdex 75 column (GE Healthcare) pre-equilibrated in PB buffer (20 mM sodium phosphate, pH 7.4, 100 mM NaCl). Purified proteins were confirmed by SDS–PAGE with Coomassie blue staining. Protein concentration was determined using absorption spectroscopy at 280 nm.
(§3) All lipids used were purchased from Avanti Polar Lipids. […] Texas Red 1,2-dihexadecanoyl-sn-glycero-3-phosphoethanolamine (TR-DPPE) (Invitrogen) of 0.05% was added to the lipid mixture for virtualization of GUV[18],[26],[27]. GUVs were prepared with the gel-assisted swelling on a polyvinyl alcohol (PVA) gel[39]. A 5% (w/w) solution of PVA (MW 145,000) was prepared by stirring PVA in ddH2O while heating at 90 °C. PVA solution was spread on a microscope coverslip (18 × 18 mm, Matsunami, Japan) and then dried at 50 °C. Lipid mixture (1 mg/mL) dissolved in chloroform were spread on the dry PVA film and placed under vacuum for 30 min to evaporate the solvent. Lipids were rehydrated for 1 h in PB buffer. The resulting GUVs were transferred to an Eppendorf tube using blunt tips.
(§4) FRAP measurements were performed as described previously. […] All reactions were at room temperature and the final volume was 200 μL.

BAX [2] = test: FRAP-GUV pore-forming activity of BAX, 70-kDa F-dextran;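 as to FRAP pore-forming activity, average: unitless ratio D/D0 relative to diffusion coefficient after Triton X-100 disruption of GUVs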;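 as to FRAP pore-forming activity: unitless ratio D/D0 relative to diffusion coefficient after Triton X-100 disruption of GUVs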; type: biochemical, mouse; parameters: FRAP pore-forming activity / FRAP pore-forming activity, average / p (FRAP-70k-p), Average: unit not given here; conditions: for pore-forming activity / effect on BAX-induced membrane pores on GUV (in words): 10- and 70-kDa F-dextran, BAX 1 µM, BimBH3 2 µM, BCL-2 1 µM, ABT-199 30 µM, room temperature, Fig. 2c; for FRAP pore-forming activity, average / FRAP pore-forming activity: 70 kDa F-dextran; for FRAP pore-forming activity, average: mean of trials
Procedure: as §1, §2, §3, §4

[3] = 10 kDa F-dextran, mean of trials

BAX: full-length mouse BAX; in FRET the single-cysteine variant BAX136C labeled with AL488 [reference compound]
FRAP pore-forming activity, average (BAX [1]; [3]): 0.009408
FRAP pore-forming activity (BAX [1]; 10 kDa F-dextran, trial1): 0.008947
FRAP pore-forming activity (BAX [1]; 10 kDa F-dextran, trial2): 0.02404
FRAP pore-forming activity (BAX [1]; 10 kDa F-dextran, trial3): 0.006842
FRAP pore-forming activity (BAX [1]; 10 kDa F-dextran, trial4): 0.00807
FRAP pore-forming activity (BAX [1]; 10 kDa F-dextran, trial5): 0.01263
FRAP pore-forming activity (BAX [1]; 10 kDa F-dextran, trial6): 0.01719
FRAP pore-forming activity (BAX [1]; 10 kDa F-dextran, trial7): 0.004737
FRAP pore-forming activity (BAX [1]; 10 kDa F-dextran, trial8): 0.002982
FRAP pore-forming activity (BAX [1]; 10 kDa F-dextran, trial9): 0.002807
FRAP pore-forming activity (BAX [1]; 10 kDa F-dextran, trial10): 0.02035
FRAP pore-forming activity (BAX [1]; 10 kDa F-dextran, trial11): 0.007719
FRAP pore-forming activity (BAX [1]; 10 kDa F-dextran, trial12): 0.003684
FRAP pore-forming activity (BAX [1]; 10 kDa F-dextran, trial13): 0.01684
FRAP pore-forming activity (BAX [1]; 10 kDa F-dextran, trial14): 0.0007018
FRAP pore-forming activity (BAX [1]; 10 kDa F-dextran, trial15): 0.003509
FRAP pore-forming activity (BAX [1]; 10 kDa F-dextran, trial16): 0.009474
FRAP pore-forming activity, average (BAX [1]; 10 kDa, Average of replicates (Count: BAX 16; BAX + BimBH3 19; BAX + BimBH3 + EEE 22; + EEE-PB 4; + EEE+ABT-199 5)): 0.009408
pore-forming activity / effect on BAX-induced membrane pores on GUV (in words) (BAX [2]): neither BAX nor EEE, in the absence of pro-apoptotic BimBH3, is able to induce large membrane pores on GUV
FRAP pore-forming activity, average (BAX [2]): 0.004165
FRAP pore-forming activity (BAX [2]; trial1): 0.0008251
FRAP pore-forming activity (BAX [2]; trial2): 0.006931
FRAP pore-forming activity (BAX [2]; trial3): 0.002475
FRAP pore-forming activity (BAX [2]; trial4): 0.000495
FRAP pore-forming activity (BAX [2]; trial5): 0.00132
FRAP pore-forming activity (BAX [2]; trial6): 0.001155
FRAP pore-forming activity (BAX [2]; trial7): 0.003135
FRAP pore-forming activity (BAX [2]; trial8): 0.001155
FRAP pore-forming activity (BAX [2]; trial9): 0.000495
FRAP pore-forming activity (BAX [2]; trial10): 0.0008251
FRAP pore-forming activity (BAX [2]; trial11): 0.00264
FRAP pore-forming activity (BAX [2]; trial12): 0.00231
FRAP pore-forming activity (BAX [2]; trial13): 0.002145
FRAP pore-forming activity (BAX [2]; trial14): 0.005776
FRAP pore-forming activity (BAX [2]; trial15): 0.000165
FRAP pore-forming activity (BAX [2]; trial16): 0.000495
FRAP pore-forming activity (BAX [2]; trial17): 0.01485
FRAP pore-forming activity (BAX [2]; trial18): 0.0132
FRAP pore-forming activity (BAX [2]; trial19): 0.01155
FRAP pore-forming activity (BAX [2]; trial20): 0.002805
FRAP pore-forming activity (BAX [2]; trial21): 0.01271
p (FRAP-70k-p), Average (BAX [2]; 70 kDa, Average of replicates (Count: BAX 21; BAX + BimBH3 16; BAX + BimBH3 + EEE 19; + EEE-PB 8; + EEE+ABT-199 5)): 0.004165

CC1(C)CCC(CN2CCN(c3ccc(C(=O)NS(=O)(=O)c4ccc(NCC5CCOCC5)c([N+](=O)[O-])c4)c(Oc4cnc5[nH]ccc5c4)c3)CC2)=C(c2ccc(Cl)cc2)C1 [ABT-199, Venetoclax, reference compound]
FRAP pore-forming activity, average (BAX [1]; [3]): 0.0002024
FRAP pore-forming activity (BAX [1]; 10 kDa F-dextran, trial1): 0.0000000
FRAP pore-forming activity (BAX [1]; 10 kDa F-dextran, trial2): 0.0001754
FRAP pore-forming activity (BAX [1]; 10 kDa F-dextran, trial3): 0.0000000
FRAP pore-forming activity (BAX [1]; 10 kDa F-dextran, trial4): 0.0001754
FRAP pore-forming activity (BAX [1]; 10 kDa F-dextran, trial5): 0.0000000
FRAP pore-forming activity (BAX [1]; 10 kDa F-dextran, trial6): 0.0000000
FRAP pore-forming activity (BAX [1]; 10 kDa F-dextran, trial7): 0.0001754
FRAP pore-forming activity (BAX [1]; 10 kDa F-dextran, trial8): 0.0008772
FRAP pore-forming activity (BAX [1]; 10 kDa F-dextran, trial9): 0.0007018
FRAP pore-forming activity (BAX [1]; 10 kDa F-dextran, trial10): 0.0000000
FRAP pore-forming activity (BAX [1]; 10 kDa F-dextran, trial11): 0.0001754
FRAP pore-forming activity (BAX [1]; 10 kDa F-dextran, trial12): 0.0001754
FRAP pore-forming activity (BAX [1]; 10 kDa F-dextran, trial13): 0.0001754
pore-forming activity / effect on BAX-induced membrane pores on GUV (in words) (BAX [2]): BimBH3 is released from EEE to induce BAX activation and membrane pores
FRAP pore-forming activity, average (BAX [2]): 0.0000762
FRAP pore-forming activity (BAX [2]; trial1): 0.0000000
FRAP pore-forming activity (BAX [2]; trial2): 0.000165
FRAP pore-forming activity (BAX [2]; trial3): 0.0000000
FRAP pore-forming activity (BAX [2]; trial4): 0.000165
FRAP pore-forming activity (BAX [2]; trial5): 0.0000000
FRAP pore-forming activity (BAX [2]; trial6): 0.0000000
FRAP pore-forming activity (BAX [2]; trial7): 0.000165
FRAP pore-forming activity (BAX [2]; trial8): 0.0000000
FRAP pore-forming activity (BAX [2]; trial9): 0.0000000
FRAP pore-forming activity (BAX [2]; trial10): 0.0000000
FRAP pore-forming activity (BAX [2]; trial11): 0.000165
FRAP pore-forming activity (BAX [2]; trial12): 0.000165
FRAP pore-forming activity (BAX [2]; trial13): 0.000165
